Reference: paper PMC9619929, “Conditional Antimicrobial Peptide Therapeutics” (ACS Nano, 2022)

What was measured:
Pharmacokinetics study = format: in vivo, mouse; details: 15 nmol IV, CD-1 mice, blood, n = 4
Procedure: ABD-AMP-Cy7 conjugates (15 nmol) were intravenously administered to CD-1 mice. At different time intervals, blood samples (5 μL) were collected via saphenous vein bleeding using heparin-coated capillary tubes. Blood samples were diluted 10-fold in PBS supplemented with Halt protease inhibitor cocktail and EDTA and centrifuged to remove cells. The supernatants were used to quantify conjugate concentration via SDS-PAGE analysis.

[1] = mouse, in vivo, iv
Procedure: All animal studies were approved by the Massachusetts Institute of Technology’s Committee on Animal Care (MIT protocol 0619-034-22). CD-1 mice (11–12 weeks old) were rendered neutropenic by intraperitoneal injections of cyclophosphamide at 4 d (150 mg/kg) and 1 d (100 mg/kg) prior to infection. PAO1 inoculation was performed by intratracheal instillation of PAO1 suspension (2 × 10^5 cfu in 50 μL PBS) via a 22G blunt-end catheter (EXCEL International). For BALF collection, the mice were first euthanized. An incision into the trachea was made with a needle puncture where lavage was performed with PBS (1 mL) via a catheter-fitted syringe. BALFs were centrifuged to remove cells, aliquoted, and stored in a −20 °C freezer.
ABD-AMP-Cy7 conjugates (15 nmol) were intravenously administered at 6 h post infection. The mice were euthanized 2 h after and organs were harvested for imaging with an Odyssey CLx imager. After imaging, organs were homogenized in PBS supplemented with Halt protease inhibitor cocktail (ThermoFisher Scientific, MA, U.S.A.) using a gentleMAC dissociator (Miltenyi Biotec, CA, U.S.A.). The homogenates were pelleted and the supernatants were used for SDS-PAGE analysis.

Toxicity evaluation = format: in vivo, mouse
Procedure: ABD-AMP conjugates at different doses were intravenously administered to CD-1 mice. The mice were closely monitored for 24 h before euthanization unless significant morbidity was observed that necessitated early euthanization. Blood samples were drawn via cardiac puncture and dispensed into serum separator tubes (BD Microtainer). The samples were left to clot for at least 30 min and spun at 15 000 rcf for 1.5 min to separate serum. The serum samples were frozen in a −20 °C freezer and submitted for serum chemistry analysis by MIT Diagnostic Laboratory (MIT Division of Comparative Medicine). Serum levels of pro-inflammatory cytokine IL-6 and TNF-α were quantified using ELISA MAX standard sets (BioLegend, CA, U.S.A.) following the manufacturer’s protocol. Organs were harvested, fixed in 10% formalin at RT for 24 h, sectioned into 5 μm slices, and stained with H&E for analysis. The slides were evaluated by a veterinary pathologist blind to the treatment groups and were digitized using a Pannoramic digital slide scanner at 20× magnification.

## Azidoacetyl–GiGkflkkakkfGkafvkilkk–K(Cy7)–CONH2 [(D)Pex-Cy7, free unconjugated Cy7-labelled (D)Pex control]
Pharmacokinetics study; SDS-PAGE Cy7 quantification
  AUC: 2.08 µM·h
Pharmacokinetics study
  t1/2,α: 35.3 min
  t1/2,β: 35.6 min
[1]
  AUC ((D)Pex-Cy7), kidneys: 14.1 % ID*h/g
  AUC ((D)Pex-Cy7), liver: 112 % ID*h/g
  AUC ((D)Pex-Cy7), lungs: 5.29 % ID*h/g
  AUC ((D)Pex-Cy7), spleen: 23.5 % ID*h/g

## CC[C@@H](C)[C@@H](NC(=O)CN)C(=O)NCC(=O)N[C@H](CCCCN)C(=O)N[C@H](Cc1ccccc1)C(=O)N[C@H](CC(C)C)C(=O)N[C@H](CCCCN)C(=O)N[C@H](CCCCN)C(=O)N[C@H](C)C(=O)N[C@H](CCCCN)C(=O)N[C@H](CCCCN)C(=O)N[C@H](Cc1ccccc1)C(=O)NCC(=O)N[C@H](CCCCN)C(=O)N[C@H](C)C(=O)N[C@H](Cc1ccccc1)C(=O)N[C@@H](C(=O)N[C@H](CCCCN)C(=O)N[C@@H](C(=O)N[C@H](CC(C)C)C(=O)N[C@H](CCCCN)C(=O)N[C@H](CCCCN)C(N)=O)[C@H](C)CC)C(C)C [(D)Pex]
Toxicity evaluation; 10 mg/kg (AMP eq) IV, 24 h
  Signs of distress over the observation period: signs of distress
Toxicity evaluation; 10 mg/kg (AMP eq) IV, 24 h, blinded veterinary pathologist, n = 3
  Histology evaluation of organs (H&E): Pathological damage was observed in kidneys and spleen
Toxicity evaluation; 10 mg/kg IV, 24 h
  Mice that did not survive to the study end point: 3 of 5
Toxicity evaluation; 10 mg/kg IV, ELISA
  Serum pro-inflammatory cytokine IL-6: significantly elevated
Toxicity evaluation; IV, 5 and 10 mg/kg AMP eq, 24 h, (D)Pex result at 10 mg/kg, n = 3–5
  Serum levels of ALT, AST, BUN and creatinine: elevated beyond a normal reference range
Toxicity evaluation; IV, CD-1 mice, monitored 24 h
  Maximum tolerated dose (MTD): 5 mg/kg
